Tests used:
Assay in all cases: relative viability (nuclei count vs DMSO), 5 days (fraction); higher = more cells survive
[1] = compound: C1CNCCC1C2=CC(=NN2)C3=CC=NC=C3 + CC(=O)Nc1cccc(-n2c(=O)n(C3CC3)c(=O)c3c(Nc4ccc(I)cc4F)n(C)c(=O)c(C)c32)c1 [Trametinib] (partner 0.02 µM)
Procedure, shortened: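 Relative viability is defined as nuclei in treated wells over nuclei in vehicle wells. Duplicate plates were run and medians reported. Lung cancer cell lines in 1536-well plates were dosed by pin tool one day after seeding, with one drug or with a fixed anchor-drug dose plus five library-drug doses (not always all listed) in √10 steps, and nuclei were counted after 5 days.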

[2] = compound: C1CNCCC1C2=CC(=NN2)C3=CC=NC=C3
Procedure, shortened: (§1)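 Following overnight incubation at 37 °C, lung cancer cell lines in 1536-well plates were pinned with five library-drug doses (not always all listed) in √10 steps on vehicle-anchored plates. The cells then spent 5 days without medium change before a combined fix, permeabilisation and Hoechst stain, 4× imaging and MetaXpress nuclear counts. Viability is the treated-to-vehicle ratio of nuclei, taken as the median across plates. Only plates with control CV below 25% and at least one doubling passed.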

[3] = compound: C[C@@H](N)c1ccc(C(=O)Nc2ccnc3[nH]ccc23)cc1
Procedure, shortened: as §1

Tanzisertib = compound: O[C@H]1CC[C@H](Nc2ncc3nc(Nc4c(F)cc(F)cc4F)n([C@H]4CCOC4)c3n2)CC1 [Tanzisertib]
Procedure, shortened: as §1

Cell Line	relative viability ([1]; first compound 0.08 µM)	relative viability ([1]; first compound 0.8 µM)	relative viability ([1]; first compound 2.53 µM)	relative viability ([1]; first compound 8 µM)	relative viability ([2]; 0.08 µM)	relative viability ([2]; 0.8 µM)	relative viability ([2]; 2.53 µM)	relative viability ([2]; 8 µM)	relative viability ([3]; 0.04 µM)	relative viability ([3]; 0.1265 µM)	relative viability ([3]; 0.4 µM)	relative viability ([3]; 1.265 µM)	relative viability ([3]; 4 µM)	relative viability (Tanzisertib; 0.08 µM)	relative viability (Tanzisertib; 0.253 µM)	relative viability (Tanzisertib; 0.8 µM)	relative viability (Tanzisertib; 2.53 µM)	relative viability (Tanzisertib; 8 µM)
PC-3 [JPC-3]	0.637	0.718	0.734	0.684	1.02	1	1.08	1.03	0.986	1.04	0.997	0.949	0.884	1.02	1.06	1.11	0.983	0.871
NCI-H1792	0.428	0.487	0.539	0.438	0.945	0.903	0.976	0.95	0.948	0.735	0.945	0.649	0.827	1.03	1.07	0.939	0.899	0.606
NCI-H596	0.777	0.808	0.819	0.834	1.02	0.995	0.983	0.959	1.06	0.905	0.907	0.815	0.967	0.927	1.05	0.893	0.914	0.818
RERF-LC-KJ	0.837	0.83	0.966	0.858	0.868	1.01	1.03	0.943	1.02	1.01	1.16	1.08	1.02	1.13	1	1.01	0.972	0.87
NCI-H322M	0.511	0.533	0.516	0.575	0.93	0.923	0.92	1.02	1.14	1.12	1.14		1.25	1.06	0.969	1.02	0.919	0.867
COR-L 105	0.42	0.501	0.427	0.47	0.857	0.925	1.02	0.923	0.91	0.964	1.11	0.7	0.735	1.08	0.899	0.918	1.15	0.706
NCI-H1993	0.512	0.597	0.509	0.536	0.889	0.911	0.978	1.02	0.989	1.1		0.9	0.996	1.06	0.952	0.969	0.822	0.786
NCI-H1437	0.54	0.536	0.679	0.639	0.974	1.07	1	0.99	1.04	1.03	1.08	0.968	0.987	1	1.06	1.04	1.02	1.04
NCI-H838	0.518	0.494	0.589	0.512	0.997	0.884	1.01	0.956	0.761	0.905	0.867	0.576	0.415	0.987	0.985	0.933	0.933	0.917
NCI-H1666	0.749	0.87	0.979	0.915	0.927	1.04	1.11	0.981	1.13	1.06	1.23	1.23	1.26	0.966	1.04	1.03	1.07	1.09
NCI-H1944	0.333	0.376	0.389	0.411	0.903	0.964	0.987	1.01	1.01	0.987	1.02	0.822	0.793	1.14	0.966	0.971	1	0.86
NCI-H2023	0.418	0.627	0.645	0.494	0.821	1.1	1.08	1	1.04	1.06	1.12	0.942	1.02	1.1	0.958	1	0.907	0.899
EBC-1					1.09	0.981	1.06	1.02	1.06	1.01	1.08	1.01	0.991	1.16	0.991	0.971	0.871	0.825
ABC-1					0.975	0.817	1.07	1.02	0.767	1.07	0.918	0.579	0.901	1.03	0.995	0.882	1	0.957
NCI-H1563					0.757	0.875	0.966	1.04	0.875	1.07	0.978	0.914	1.03	1.03	1.03	0.995	0.997	0.99
NCI-H1299					1.04	1.05	0.978	0.976	0.967	0.985	0.963	0.955	0.862	1.06	1.03	1.01	0.998	1.08
A549					0.872	1.03	1.07	1.05	1.02	1.03	1.19	0.944	0.829	1	0.99	0.976	1	0.856
NCI-H1623					0.991	0.921	1.14	1.03	1.16	0.976	1.11	1.06	1.15	1.08	1.21	1.01	0.964	0.952
NCI-H1703					0.874	1.2	1.01	0.94	0.794	0.863	0.757		0.906	1.14	0.899	0.843	0.717	0.719
Calu-6					0.964	1.02	1.01	0.998	1.02	1.03	1.03	0.935	0.826	1.01	1.01	1.01	1.01	0.931
